The target in assay [1] is T1, Bile acid receptor (Homo sapiens) (UniProt Q96RI1).
T1 sequence (whole entry): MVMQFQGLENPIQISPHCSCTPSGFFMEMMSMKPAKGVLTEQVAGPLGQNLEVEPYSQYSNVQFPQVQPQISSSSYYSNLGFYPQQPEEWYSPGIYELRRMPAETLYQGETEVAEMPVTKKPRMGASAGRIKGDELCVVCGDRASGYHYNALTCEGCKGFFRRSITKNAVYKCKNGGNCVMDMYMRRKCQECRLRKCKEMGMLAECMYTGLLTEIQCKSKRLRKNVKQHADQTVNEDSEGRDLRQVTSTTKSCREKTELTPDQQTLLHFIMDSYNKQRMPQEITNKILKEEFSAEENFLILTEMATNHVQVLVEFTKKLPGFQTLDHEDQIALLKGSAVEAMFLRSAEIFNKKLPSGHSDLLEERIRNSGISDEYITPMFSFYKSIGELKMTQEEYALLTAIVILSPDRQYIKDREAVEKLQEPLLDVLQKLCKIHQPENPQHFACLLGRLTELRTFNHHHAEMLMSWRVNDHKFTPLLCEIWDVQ
The assay can be described thus: Agonist activity at FXR (unknown origin) measured after 16 hrs in presence of CCF4-AM dye by cell-based GeneBlazer FRET assay relative to CDCA.

The target of assay [2] is T1, Bile acid receptor (Homo sapiens). The assay can be described thus: Agonist activity at recombinant human GST-tagged FXR LBD (193 to 472 residues) expressed in baculovirus-infected insect cells assessed as recruitment of biotinylated SRC1 peptide measured after 1 hr by Alphascreen assay relative to CDCA. (Bead proximity is the source of the signal in Alpha formats.)

Assay [3] concerns the target T2, Bile acid receptor (Homo sapiens, UniProt Q96RI1).
T2 sequence (Q96RI1 whole entry): T1 sequence (whole entry)
The assay can be described thus: Agonist activity at FXR (unknown origin) measured after 16 hrs in presence of CCF4-AM dye by cell-based GeneBlazer FRET assay.

Assay [4] addresses T2, Bile acid receptor. The experiment in a line: Agonist activity at recombinant human GST-tagged FXR LBD (193 to 472 residues) expressed in baculovirus-infected insect cells assessed as recruitment of biotinylated SRC1 peptide measured after 1 hr by Alphascreen assay.
Assay [5] has as its target T3, G-protein coupled bile acid receptor 1 (Homo sapiens, UniProt Q8TDU6).
T3 sequence (Q8TDU6 whole entry): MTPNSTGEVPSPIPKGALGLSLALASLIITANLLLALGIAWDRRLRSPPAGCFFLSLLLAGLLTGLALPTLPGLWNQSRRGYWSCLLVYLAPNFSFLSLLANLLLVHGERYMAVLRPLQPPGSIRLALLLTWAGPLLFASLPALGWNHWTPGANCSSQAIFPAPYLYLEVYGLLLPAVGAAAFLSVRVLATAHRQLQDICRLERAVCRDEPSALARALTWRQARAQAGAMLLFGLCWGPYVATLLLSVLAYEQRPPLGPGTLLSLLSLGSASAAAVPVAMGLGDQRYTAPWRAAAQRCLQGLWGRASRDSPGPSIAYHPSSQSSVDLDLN
The experiment in a line: Agonist activity at human TGR5 expressed in HEK293 cells assessed as increase in intracellular cAMP level after 1 hr by TR-FRET assay. It counts as functional, cell-based. Background: cAMP levels reflect the balance of adenylyl cyclase and phosphodiesterase activity.

The species named for another assay is Homo sapiens. The assay can be described thus: Selectivity ratio of EC50 for recombinant human GST-tagged FXR LBD (193 to 472 residues) expressed in baculovirus-infected insect cells to EC50 for human TGR5 expressed in HEK293 cells.

SMILES strings stand for the structures.

For the compound `CC[C@H]1[C@@H](O)[C@@H]2[C@H](CC[C@]3(C)[C@@H]([C@H](C)CCNC(=O)O[C@@H]4CCOC4)CC[C@@H]23)[C@@]2(C)CC[C@@H](O)C[C@@H]12`, the Efficacy turned out to be 170% in assay [1] and 100% in assay [2]. Further, the results for the EC50 on Bile acid receptor [3] and on Bile acid receptor [4] were 80 nM and 120 nM, respectively.
As for `CC[C@H]1[C@@H](O)[C@@H]2[C@H](CC[C@]3(C)[C@@H]([C@H](C)CCNC(=O)NC4CC4)CC[C@@H]23)[C@@]2(C)CC[C@@H](O)C[C@@H]12`, the Efficacy in assay [2] was 104%. Besides, the values for the EC50 (in assay [5]; at Bile acid receptor [4]) were 420 nM and 70 nM, respectively. Further, in the assay listed under Homo sapiens, the Ratio EC50 came out at 6.
As for `CC[C@H]1[C@@H](O)[C@@H]2[C@H](CC[C@]3(C)[C@@H]([C@H](C)CCC(=O)O)CC[C@@H]23)[C@@]2(C)CC[C@@H](OC)C[C@@H]12`, the Efficacy in assay [2] was determined as 108%. Further, on Bile acid receptor [4], the EC50 turned out to be 1800 nM.
For `CC[C@H]1[C@@H](O)[C@@H]2[C@H](CC[C@]3(C)[C@@H]([C@H](C)CCCNC(=O)N4CC[C@H](O)C4)CC[C@@H]23)[C@@]2(C)CC[C@@H](O)C[C@@H]12` the same measures were 129% and 370 nM.
The like results for `CC[C@H]1[C@@H](O)[C@@H]2[C@H](CC[C@]3(C)[C@@H]([C@H](C)CCNC(=O)c4ccccn4)CC[C@@H]23)[C@@]2(C)CC[C@@H](O)C[C@@H]12` were, in that order, 88% and 30 nM.
The like results for `CC[C@H]1[C@@H](O)[C@@H]2[C@H](CC[C@]3(C)[C@@H]([C@H](C)CCNS(=O)(=O)C4CC4)CC[C@@H]23)[C@@]2(C)CC[C@@H](O)C[C@@H]12` were, in that order, 87% and 230 nM.
In the case of `CC[C@H]1[C@@H](O)[C@@H]2[C@H](CC[C@]3(C)[C@@H]([C@H](C)CCNS(=O)(=O)c4ccccc4)CC[C@@H]23)[C@@]2(C)CC[C@@H](O)C[C@@H]12`, in assay [2], the Efficacy is 117%. Moreover, the EC50 at Bile acid receptor [4] was 470 nM.
The like results for `CC[C@H]1[C@@H](O)[C@@H]2[C@H](CC[C@]3(C)[C@@H]([C@H](C)CCC(=O)O)CC[C@@H]23)[C@@]2(C)CCC(C)C[C@@H]12` (stereo not given in full) were, in that order, 49% and 1500 nM.
For `CC[C@H]1[C@@H](O)[C@@H]2[C@H](CC[C@]3(C)[C@@H]([C@H](C)CCNC(=O)OCc4ccccc4)CC[C@@H]23)[C@@]2(C)CC[C@@H](O)C[C@@H]12` the same measures were 130% and 300 nM.
For `CC[C@H]1[C@@H](O)[C@@H]2[C@H](CC[C@]3(C)[C@@H]([C@H](C)CCc4nn[nH]n4)CC[C@@H]23)[C@@]2(C)CC[C@@H](O)C[C@@H]12`, the Efficacy in assay [2] was 153%. For the same compound, the Ratio EC50 in the assay listed under Homo sapiens stood at 30.
Consider `CC[C@H]1[C@@H](O)[C@@H]2[C@H](CC[C@]3(C)[C@@H]([C@H](C)CCC(=O)O)CC[C@@H]23)[C@@]2(C)CCC3(CC3)C[C@@H]12`, for which the Efficacy in assay [2] is 68%. The EC50 at Bile acid receptor [4] came to 700 nM.
On to `CC[C@H]1[C@@H](O)[C@@H]2[C@H](CC[C@]3(C)[C@@H]([C@H](C)CCNC(=O)OC(C)C)CC[C@@H]23)[C@@]2(C)CC[C@@H](O)C[C@@H]12`, for which the Efficacy in assay [2] came out at 162%. Also, on Bile acid receptor [4], the concentration giving a half-maximal response (EC50) came out at 300 nM.
With `CC[C@H]1[C@@H](O)[C@@H]2[C@H](CC[C@]3(C)[C@@H]([C@H](C)CCNC(=O)N4CC[C@H](O)C4)CC[C@@H]23)[C@@]2(C)CC[C@@H](O)C[C@@H]12`, the Efficacy in assay [2] was 115%. Further, the EC50 in assay [5] worked out at 160 nM; on Bile acid receptor [4] it was 80 nM. Further, the Ratio EC50 in the assay listed under Homo sapiens is 2.
In the case of `CC[C@H]1[C@@H](O)[C@@H]2[C@H](CC[C@]3(C)[C@@H]([C@H](C)CCCNS(C)(=O)=O)CC[C@@H]23)[C@@]2(C)CC[C@@H](O)C[C@@H]12`, in assay [2], the Efficacy stood at 85%. For the same compound, the EC50 on Bile acid receptor [4] was 110 nM.
For `CC[C@H]1[C@@H](O)[C@@H]2[C@H](CC[C@]3(C)[C@@H]([C@H](C)CCC(N)=O)CC[C@@H]23)[C@@]2(C)CC[C@@H](O)C[C@@H]12` the same measures were 142% and 600 nM.
For `CC[C@H]1[C@@H](O)[C@@H]2[C@H](CC[C@]3(C)[C@@H]([C@H](C)CCNS(C)(=O)=O)CC[C@@H]23)[C@@]2(C)CC[C@@H](O)C[C@@H]12` the same measures were 128% and 280 nM.
For `CC[C@H]1[C@@H](O)[C@@H]2[C@H](CC[C@]3(C)[C@@H]([C@H](C)CCC4NC(=O)NC4=O)CC[C@@H]23)[C@@]2(C)CC[C@@H](O)C[C@@H]12` (stereo not given in full) the same measures were 202% and 2700 nM.
In the case of `CC[C@H]1[C@@H](O)[C@@H]2[C@H](CC[C@]3(C)[C@@H]([C@H](C)CCC(C)=O)CC[C@@H]23)[C@@]2(C)CC[C@@H](O)C[C@@H]12`, the Efficacy in assay [2] is 263%. Further, on Bile acid receptor [4], the concentration giving a half-maximal response (EC50) was 1000 nM.
As for `CC[C@H]1[C@@H](O)[C@@H]2[C@H](CC[C@]3(C)[C@@H]([C@H](C)CCC(=O)O)CC[C@@H]23)[C@@]2(C)Cc3cn[nH]c3C[C@@H]12`, the Efficacy in assay [2] is 136%. Also, the half-maximal effective concentration (EC50) at Bile acid receptor [4] came to 300 nM.
For `CC[C@H]1[C@@H](O)[C@@H]2[C@H](CC[C@]3(C)[C@@H]([C@H](C)CCC(=O)O)CC[C@@H]23)[C@@]2(C)CCCC[C@@H]12` the same measures were 126% and 400 nM.
Regarding `CC[C@H]1[C@@H](O)[C@@H]2[C@H](CC[C@]3(C)[C@@H]([C@H](C)CCCNC(N)=O)CC[C@@H]23)[C@@]2(C)CC[C@@H](O)C[C@@H]12`, in assay [2], the Efficacy was found to be 95%. Besides, the half-maximal effective concentration (EC50) on Bile acid receptor [4] turned out to be 130 nM.
The like results for `CC[C@H]1[C@@H](O)[C@@H]2[C@H](CC[C@]3(C)[C@@H]([C@H](C)CCNC(=O)OC4CCCCC4)CC[C@@H]23)[C@@]2(C)CC[C@@H](O)C[C@@H]12` were, in that order, 140% and 300 nM.
For `CC[C@H]1[C@@H](O)[C@@H]2[C@H](CC[C@]3(C)[C@@H]([C@H](C)CCNC(=O)OC)CC[C@@H]23)[C@@]2(C)CC[C@@H](O)C[C@@H]12` the same measures were 149% and 300 nM.
The like results for `CC[C@H]1[C@@H](O)[C@@H]2[C@H](CC[C@]3(C)[C@@H]([C@H](C)CCNC(C)=O)CC[C@@H]23)[C@@]2(C)CC[C@@H](O)C[C@@H]12` were, in that order, 81% and 150 nM.
Regarding `CC[C@H]1[C@@H](O)[C@@H]2[C@H](CC[C@]3(C)[C@@H]([C@H](C)CCC(=O)O)CC[C@@H]23)[C@@]2(C)CCC(F)(F)C[C@@H]12`, the Efficacy in assay [2] amounted to 109%. Also, the EC50 on Bile acid receptor [4] came out at 1100 nM.
As to `CC[C@H]1[C@@H](O)[C@@H]2[C@H](CC[C@]3(C)[C@@H]([C@H](C)CCNC(=O)OCc4cccs4)CC[C@@H]23)[C@@]2(C)CC[C@@H](O)C[C@@H]12`, the Efficacy in assay [1] was found to be 168%; in assay [2] it was 142%. In addition, the EC50 at Bile acid receptor [3] was determined as 110 nM; on Bile acid receptor [4] it was 230 nM.
Consider `CC[C@H]1[C@@H](O)[C@@H]2[C@H](CC[C@]3(C)[C@@H]([C@H](C)CCNC(N)=O)CC[C@@H]23)[C@@]2(C)CC[C@@H](O)C[C@@H]12`, for which the Efficacy in assay [2] was found to be 104%. In addition, at Bile acid receptor [4], the EC50 was 230 nM.
The like results for `CC[C@H]1[C@@H](O)[C@@H]2[C@H](CC[C@]3(C)[C@@H]([C@H](C)CCC(=O)NCC(=O)O)CC[C@@H]23)[C@@]2(C)CC[C@@H](O)C[C@@H]12` were, in that order, 135% and 290 nM.
The like results for `CC[C@H]1[C@@H](O)[C@@H]2[C@H](CC[C@]3(C)[C@@H]([C@H](C)CCC(=O)S)CC[C@@H]23)[C@@]2(C)CC[C@@H](O)C[C@@H]12` were, in that order, 226% and 240 nM.
For `CC[C@H]1[C@@H](O)[C@@H]2[C@H](CC[C@]3(C)[C@@H]([C@H](C)CCNC(=O)OC4CCC4)CC[C@@H]23)[C@@]2(C)CC[C@@H](O)C[C@@H]12` the same measures were 100% and 150 nM.
Take `CC[C@H]1[C@@H](O)[C@@H]2[C@H](CC[C@]3(C)[C@@H]([C@H](C)CCCNS(=O)(=O)c4ccccc4)CC[C@@H]23)[C@@]2(C)CC[C@@H](O)C[C@@H]12`: in assay [2], the Efficacy came out at 79%. Besides, on Bile acid receptor [4], the EC50 turned out to be 230 nM.

As usually defined, the EC50 is the concentration giving half of the maximal effect.

These data come from ChEMBL document CHEMBL4138253, “Synthesis and Biological Evaluation of a Series of Bile Acid Derivatives as FXR Agonists for Treatment of NASH” (ACS Med Chem Lett, 2017).
